From patent US10004701B2, “Methods and compositions for treating infection” (UNIVERSITY OF ROCHESTER, priority 2012, dated 2018)
Where a name gives a salt, the structure may show the parent alone. Read-outs that look alike come from different tables or passages of the source.

Columns and labels:
Test in all cases: AK assay 384-well format, Prestwick library screening
E. cloacae = assay type: cell-based, Enterobacter cloacae; settings: 50 μM final drug concentration; for fold induction at 50 µM: Enterobacter cloacae, 3 h
P. aeruginosa = assay type: cell-based, Pseudomonas aeruginosa; settings: 50 μM final drug concentration; for fold induction at 50 µM: Pseudomonas aeruginosa, 3 h
K. pneumoniae = assay type: cell-based, Klebsiella pneumoniae; settings: 50 μM final drug concentration; for fold induction at 50 µM: Klebsiella pneumoniae, 3 h
E. coli = assay type: cell-based, Escherichia coli; settings: 50 μM final drug concentration; for fold induction at 50 µM: Escherichia coli, 3 h
E. faecium = assay type: cell-based, Enterococcus faecium; settings: 50 μM final drug concentration; for fold induction at 50 µM: Enterococcus faecium, 3 h
[1] = tested on: S. aureus strain USA300-0114; assay type: cell-based, Staphylococcus aureus; settings: 50 μM final drug concentration; for fold induction at 50 µM: Staphylococcus aureus, USA300, 3 h
[2] = tested on: A. baumannii strain 98-37-09; assay type: cell-based, Acinetobacter baumannii; settings: 50 μM final drug concentration; for fold induction at 50 µM: Acinetobacter baumannii, 983709, 3 h
[3] = cutoff for positive-scoring molecules 3-fold increase
[4] = planktonic, cutoff for positive 3-fold increase
[5] = 384-well format, cutoff for positive-scoring molecules 3-fold increase

COc1ccc2c(c1)N(C[C@H](C)CN(C)C)c1ccccc1S2.O=C(O)/C=C\C(=O)O [Methotrimeprazine maleat salt]
AK-based Prestwick Library Screening Results, E. cloacae (fold increase in extracellular AK activity) (E. cloacae; [3]): 1.8 | AK-based Prestwick Library Screening Results, P. aeruginosa (fold increase in extracellular AK activity) (P. aeruginosa; [3]): 1.1 | AK-based Prestwick Library Screening Results, K. pneumoniae (fold increase in extracellular AK activity) (K. pneumoniae; [3]): 1.0 | AK-based Prestwick Library Screening Results, E. coli (fold increase in extracellular AK activity) (E. coli; [3]): 1.3 | AK-based Prestwick Library Screening Results, E. faecium (fold increase in extracellular AK activity) (E. faecium; [3]): 1.0 | AK-based Prestwick Library Screening Results, S. aureus (fold increase in extracellular AK activity) [1, 3]: 1.2 | AK-based Prestwick Library Screening Results, A. baumannii (fold increase in extracellular AK activity) [2, 3]: 1.1

COc1ccc(OC)c(C(O)C(C)N)c1 (centres unmarked) [Methoxamine hydrochloride]
fold induction at 50 µM (E. cloacae; planktonic, cutoff for positive 3-fold increase, read-out: AK-based Prestwick Library Screening Results, E. cloacae (fold increase in extracellular AK activity)): 1.4 | fold induction at 50 µM (P. aeruginosa; planktonic, cutoff for positive 3-fold increase, read-out: AK-based Prestwick Library Screening Results, P. aeruginosa (fold increase in extracellular AK activity)): 1.2 | fold induction at 50 µM (K. pneumoniae; planktonic, cutoff for positive 3-fold increase, read-out: AK-based Prestwick Library Screening Results, K. pneumoniae (fold increase in extracellular AK activity)): 1 | fold induction at 50 µM (E. coli; planktonic, cutoff for positive 3-fold increase, read-out: AK-based Prestwick Library Screening Results, E. coli (fold increase in extracellular AK activity)): 1.1 | fold induction at 50 µM (E. faecium; planktonic, cutoff for positive 3-fold increase, read-out: AK-based Prestwick Library Screening Results, E. faecium (fold increase in extracellular AK activity)): 1 | fold induction at 50 µM ([1]; planktonic, cutoff for positive 3-fold increase, read-out: AK-based Prestwick Library Screening Results, S. aureus (fold increase in extracellular AK activity)): 0.9 | fold induction at 50 µM ([2]; planktonic, cutoff for positive 3-fold increase, read-out: AK-based Prestwick Library Screening Results, A. baumannii (fold increase in extracellular AK activity)): 1

COc1ccc2[nH]c3c(c2c1)CCN=C3C [Methoxy-6-harmalan]
AK-based Prestwick Library Screening Results, E. cloacae (fold increase in extracellular AK activity) (E. cloacae; planktonic, […]): 1.4 | AK-based Prestwick Library Screening Results, P. aeruginosa (fold increase in extracellular AK activity) (P. aeruginosa; planktonic, […]): 1.2 | AK-based Prestwick Library Screening Results, K. pneumoniae (fold increase in extracellular AK activity) (K. pneumoniae; planktonic, […]): 1.0 | AK-based Prestwick Library Screening Results, E. coli (fold increase in extracellular AK activity) (E. coli; planktonic, […]): 1.4 | AK-based Prestwick Library Screening Results, E. faecium (fold increase in extracellular AK activity) (E. faecium; planktonic, […]): 1.0 | AK-based Prestwick Library Screening Results, S. aureus (fold increase in extracellular AK activity) ([1]; planktonic, […]): 0.8 | AK-based Prestwick Library Screening Results, A. baumannii (fold increase in extracellular AK activity) ([2]; planktonic, […]): 1.3

COc1c2occc2cc2ccc(=O)oc12 [Methoxy-8-psoralen]
AK-based Prestwick Library Screening Results, E. cloacae (fold increase in extracellular AK activity) (E. cloacae; [4]): 1.5 | AK-based Prestwick Library Screening Results, P. aeruginosa (fold increase in extracellular AK activity) (P. aeruginosa; [4]): 1.0 | AK-based Prestwick Library Screening Results, K. pneumoniae (fold increase in extracellular AK activity) (K. pneumoniae; [4]): 0.9 | AK-based Prestwick Library Screening Results, E. coli (fold increase in extracellular AK activity) (E. coli; [4]): 1.1 | AK-based Prestwick Library Screening Results, E. faecium (fold increase in extracellular AK activity) (E. faecium; [4]): 1.1 | AK-based Prestwick Library Screening Results, S. aureus (fold increase in extracellular AK activity) [1, 4]: 1.0 | AK-based Prestwick Library Screening Results, A. baumannii (fold increase in extracellular AK activity) [2, 4]: 1.0

C[N+]1(C)[C@@H]2CC[C@H]1C[C@@H](OC(=O)C(CO)c1ccccc1)C2 (some centres unmarked) [Methylatropine nitrate]
fold induction at 50 µM (E. cloacae; planktonic, cutoff for positive-scoring molecules 3-fold increase, read-out: AK-based Prestwick Library Screening Results, E. cloacae (fold increase in extracellular AK activity)): 0.8 | fold induction at 50 µM (P. aeruginosa; planktonic, cutoff for positive-scoring molecules 3-fold increase, read-out: AK-based Prestwick Library Screening Results, P. aeruginosa (fold increase in extracellular AK activity)): 0.7 | fold induction at 50 µM (K. pneumoniae; planktonic, cutoff for positive-scoring molecules 3-fold increase, read-out: AK-based Prestwick Library Screening Results, K. pneumoniae (fold increase in extracellular AK activity)): 0.6 | fold induction at 50 µM (E. coli; planktonic, cutoff for positive-scoring molecules 3-fold increase, read-out: AK-based Prestwick Library Screening Results, E. coli (fold increase in extracellular AK activity)): 0.7 | fold induction at 50 µM (E. faecium; planktonic, cutoff for positive-scoring molecules 3-fold increase, read-out: AK-based Prestwick Library Screening Results, E. faecium (fold increase in extracellular AK activity)): 1 | fold induction at 50 µM ([1]; planktonic, cutoff for positive-scoring molecules 3-fold increase, read-out: AK-based Prestwick Library Screening Results, S. aureus (fold increase in extracellular AK activity)): 0.6 | fold induction at 50 µM ([2]; planktonic, cutoff for positive-scoring molecules 3-fold increase, read-out: AK-based Prestwick Library Screening Results, A. baumannii (fold increase in extracellular AK activity)): 0.7

C[C@](N)(Cc1ccc(O)c(O)c1)C(=O)O [Methyldopa (L,−)]
AK-based Prestwick Library Screening Results: E. cloacae (increase in extracellular AK activity) (E. cloacae; planktonic E. cloacae, 384-well, cutoff for positive-scoring molecules 3-fold increase): 0.5 | AK-based Prestwick Library Screening Results: P. aeruginosa (increase in extracellular AK activity) (P. aeruginosa; planktonic P. aeruginosa, 384-well, cutoff for positive-scoring molecules 3-fold increase): 0.4 | AK-based Prestwick Library Screening Results: K. pneumoniae (increase in extracellular AK activity) (K. pneumoniae; planktonic K. pneumoniae, 384-well, cutoff for positive-scoring molecules 3-fold increase): 0.6 | AK-based Prestwick Library Screening Results: E. coli (increase in extracellular AK activity) (E. coli; planktonic E. coli, 384-well, cutoff for positive-scoring molecules 3-fold increase): 0.6 | AK-based Prestwick Library Screening Results: E. faecium (increase in extracellular AK activity) (E. faecium; planktonic E. faecium, 384-well, cutoff for positive-scoring molecules 3-fold increase): 0.9 | AK-based Prestwick Library Screening Results: S. aureus (increase in extracellular AK activity) ([1]; planktonic S. aureus, 384-well, cutoff for positive-scoring molecules 3-fold increase): 0.4 | AK-based Prestwick Library Screening Results: A. baumannii (increase in extracellular AK activity) ([2]; planktonic A. baumannii, 384-well, cutoff for positive-scoring molecules 3-fold increase): 0.5

CCOC(=O)[C@@](C)(N)Cc1ccc(O)c(O)c1 [Methyldopate hydrochloride]
fold induction at 50 µM (E. cloacae; planktonic E. cloacae, positive cutoff 3-fold increase, read-out: AK-based Prestwick library screening result, E. cloacae (fold increase in extracellular AK activity)): 1.8 | fold induction at 50 µM (P. aeruginosa; planktonic P. aeruginosa, positive cutoff 3-fold increase, read-out: AK-based Prestwick library screening result, P. aeruginosa (fold increase in extracellular AK activity)): 1.1 | fold induction at 50 µM (K. pneumoniae; planktonic K. pneumoniae, positive cutoff 3-fold increase, read-out: AK-based Prestwick library screening result, K. pneumoniae (fold increase in extracellular AK activity)): 1.2 | fold induction at 50 µM (E. coli; planktonic E. coli, positive cutoff 3-fold increase, read-out: AK-based Prestwick library screening result, E. coli (fold increase in extracellular AK activity)): 1.2 | fold induction at 50 µM (E. faecium; planktonic E. faecium, positive cutoff 3-fold increase, read-out: AK-based Prestwick library screening result, E. faecium (fold increase in extracellular AK activity)): 1.1 | fold induction at 50 µM ([1]; planktonic S. aureus, positive cutoff 3-fold increase, read-out: AK-based Prestwick library screening result, S. aureus (fold increase in extracellular AK activity)): 1.2 | fold induction at 50 µM ([2]; planktonic A. baumannii, positive cutoff 3-fold increase, read-out: AK-based Prestwick library screening result, A. baumannii (fold increase in extracellular AK activity)): 1.4

CC[C@@H](CO)NC(=O)[C@@H]1C=C2c3cccc4[nH]cc(c34)C[C@H]2N(C)C1 [Methylergometrine maleate]
fold induction at 50 µM (E. cloacae; planktonic, […], read-out: AK-based Prestwick Library Screening Results, E. cloacae (fold increase in extracellular AK activity)): 1.6 | fold induction at 50 µM (P. aeruginosa; planktonic, […], read-out: AK-based Prestwick Library Screening Results, P. aeruginosa (fold increase in extracellular AK activity)): 0.9 | fold induction at 50 µM (K. pneumoniae; planktonic, […], read-out: AK-based Prestwick Library Screening Results, K. pneumoniae (fold increase in extracellular AK activity)): 1 | fold induction at 50 µM (E. coli; planktonic, […], read-out: AK-based Prestwick Library Screening Results, E. coli (fold increase in extracellular AK activity)): 1 | fold induction at 50 µM (E. faecium; planktonic, […], read-out: AK-based Prestwick Library Screening Results, E. faecium (fold increase in extracellular AK activity)): 0.9 | fold induction at 50 µM ([1]; planktonic, […], read-out: AK-based Prestwick Library Screening Results, S. aureus (fold increase in extracellular AK activity)): 0.8 | fold induction at 50 µM ([2]; planktonic, […], read-out: AK-based Prestwick Library Screening Results, A. baumannii (fold increase in extracellular AK activity)): 0.9

C[C@H]1NC(=O)NC1=O [Methylhydantoin-5-(D)]
AK-based Prestwick Library Screening Results, E. cloacae (fold increase in extracellular AK activity) (E. cloacae; [3]): 1.5 | AK-based Prestwick Library Screening Results, P. aeruginosa (fold increase in extracellular AK activity) (P. aeruginosa; [3]): 1.2 | AK-based Prestwick Library Screening Results, K. pneumoniae (fold increase in extracellular AK activity) (K. pneumoniae; [3]): 1.1 | AK-based Prestwick Library Screening Results, E. coli (fold increase in extracellular AK activity) (E. coli; […]): 1.2 | AK-based Prestwick Library Screening Results, E. faecium (fold increase in extracellular AK activity) (E. faecium; [3]): 1.0 | AK-based Prestwick Library Screening Results, S. aureus (fold increase in extracellular AK activity) [1, 3]: 1.2 | AK-based Prestwick Library Screening Results, A. baumannii (fold increase in extracellular AK activity) [2, 3]: 1.3

C[C@@H]1NC(=O)NC1=O [Methylhydantoin-5-(L)]
AK-based Prestwick Library Screening Results, E. cloacae (fold increase in extracellular AK activity) (E. cloacae; [3]): 2.0 | AK-based Prestwick Library Screening Results, P. aeruginosa (fold increase in extracellular AK activity) (P. aeruginosa; [3]): 1.1 | AK-based Prestwick Library Screening Results, K. pneumoniae (fold increase in extracellular AK activity) (K. pneumoniae; [3]): 1.0 | AK-based Prestwick Library Screening Results, E. coli (fold increase in extracellular AK activity) (E. coli; […]): 1.4 | AK-based Prestwick Library Screening Results, E. faecium (fold increase in extracellular AK activity) (E. faecium; [3]): 1.1 | AK-based Prestwick Library Screening Results, S. aureus (fold increase in extracellular AK activity) [1, 3]: 1.3 | AK-based Prestwick Library Screening Results, A. baumannii (fold increase in extracellular AK activity) [2, 3]: 1.0

C[C@H]1C[C@@H]2[C@H]([C@@H](O)C[C@@]3(C)[C@H]2CC[C@]3(O)C(=O)CO)[C@@]2(C)C=CC(=O)C=C12 [Methylprednisolone, 6-alpha]
AK-based Prestwick Library Screening Results, E. cloacae (increase in extracellular AK activity) (E. cloacae; [5]): 1.3 | AK-based Prestwick Library Screening Results, P. aeruginosa (increase in extracellular AK activity) (P. aeruginosa; [5]): 0.9 | AK-based Prestwick Library Screening Results, K. pneumoniae (increase in extracellular AK activity) (K. pneumoniae; [5]): 0.7 | AK-based Prestwick Library Screening Results, E. coli (increase in extracellular AK activity) (E. coli; [5]): 0.8 | AK-based Prestwick Library Screening Results, E. faecium (increase in extracellular AK activity) (E. faecium; [5]): 1.0 | AK-based Prestwick Library Screening Results, S. aureus (increase in extracellular AK activity) [1, 5]: 0.8 | AK-based Prestwick Library Screening Results, A. baumannii (increase in extracellular AK activity) [2, 5]: 0.9
